Measurements published in paper PMC11792831, “Design and synthesis of doublecortin-like kinase 1 inhibitors and their bioactivity evaluation” (Journal of Enzyme Inhibition and Medicinal Chemistry, 2023).
Read-outs that look alike come from different tables or passages of the source.

How the values were obtained:
LRRK2 = target: T1, LRRK2 (Homo sapiens, UniProt Q5S007); experiment: In vitro LRRK2 kinase activity assay (Eurofins); format: biochemical; settings: for LRRK2 activity (%) / activity at 1 µM: remaining kinase activity at 1 uM compound, 100% = no inhibition, 0% = complete inhibition
T1 construct: purchased Eurofins (Belgium), contract assay service
Procedure: All compounds were tested for their kinase inhibitory activity at the concentration of 1 μM. […] Compounds with high activity or good selectivity were selected for further IC50 determination (Table 2).
(§1) Eurofins (Belgium) conducted in vitro DCLK1 and LRRK2 kinase activity assays. Compounds were sent as dry powders to Eurofins.

DCLK1 = target: T2, DCLK1 (Homo sapiens, UniProt O15075); experiment: In vitro DCLK1 kinase activity assay (Eurofins); format: biochemical; settings: for Selectivity (DCLK1 activity/LRRK2 activity): ratio of remaining activities at 1 uM; for activity at 1 µM: read-out: DCLK1 activity (%)
T2 construct: purchased Eurofins (Belgium), contract assay service
T2 sequence (O15075 1-740): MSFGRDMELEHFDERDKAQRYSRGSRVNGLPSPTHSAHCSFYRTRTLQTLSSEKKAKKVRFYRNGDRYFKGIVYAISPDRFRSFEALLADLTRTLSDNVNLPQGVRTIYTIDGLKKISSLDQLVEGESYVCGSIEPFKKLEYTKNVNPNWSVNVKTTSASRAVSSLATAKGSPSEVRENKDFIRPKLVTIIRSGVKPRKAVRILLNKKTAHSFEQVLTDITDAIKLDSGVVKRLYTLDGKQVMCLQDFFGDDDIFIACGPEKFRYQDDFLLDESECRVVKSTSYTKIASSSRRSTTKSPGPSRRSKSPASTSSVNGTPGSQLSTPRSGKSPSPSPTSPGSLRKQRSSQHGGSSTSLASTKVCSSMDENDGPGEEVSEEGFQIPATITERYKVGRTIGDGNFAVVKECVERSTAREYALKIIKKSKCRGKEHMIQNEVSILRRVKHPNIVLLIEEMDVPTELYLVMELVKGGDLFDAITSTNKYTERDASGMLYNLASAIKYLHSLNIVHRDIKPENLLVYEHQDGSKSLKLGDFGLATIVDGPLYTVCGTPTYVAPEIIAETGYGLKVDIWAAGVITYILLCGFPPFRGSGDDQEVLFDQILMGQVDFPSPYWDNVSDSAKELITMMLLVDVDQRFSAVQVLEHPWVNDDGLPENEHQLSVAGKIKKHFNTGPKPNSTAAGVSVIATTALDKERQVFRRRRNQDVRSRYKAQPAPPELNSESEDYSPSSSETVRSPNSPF
Text: as §1

HCT116 = experiment: In vitro cytotoxicity / anti-proliferation assay (CCK8); format: cell-based; settings: Homo sapiens, HCT-116, colorectal cancer cell line HCT116, 72 h
Procedure: To determine whether DCLK1 was required for tumour cell proliferation, the cytotoxicity of compounds was evaluated in colorectal cancer cell line HCT116. HCT116 was treated with compounds for 72 h, and the cell viability was determined using CCK8 assay (Figure 4). The antiproliferative effects of most compounds on HCT116 were correlated with their DCLK1 inhibitory activities, except for compounds D1 and D2. The poor cytotoxicity of compounds D1 and D2 may be attributed to their poor cell membrane permeability due to the negatively charged carboxylates. […] Overall, targeting DCLK1 inhibited the proliferation of HCT116, indicating the importance of DCLK1 in tumour growth.
A 96-well plate (3599, Corning, USA) was inoculated with 100 μL of complete medium containing 10 000 cells, and the experimental, control, and blank groups were established. Three parallel wells were used per concentration. After 10 h, media from the experimental and control groups were replaced with a complete medium containing the indicated concentration of the compound. Cells were incubated for 72 h before 10 μL of CCK8 reagent (CA1210, Solarbio, China) was added to each well and incubated for 1 h. The absorbance at 450 nm was measured with a microplate reader (Tecan, Switzerland). The IC50 was determined using GraphPad Prism 8 and nonlinear regression curve fitting.

[1] = remaining kinase activity at 1 uM compound, 100% = no inhibition, 0% = complete inhibition

T1 sequence (Q5S007 whole entry): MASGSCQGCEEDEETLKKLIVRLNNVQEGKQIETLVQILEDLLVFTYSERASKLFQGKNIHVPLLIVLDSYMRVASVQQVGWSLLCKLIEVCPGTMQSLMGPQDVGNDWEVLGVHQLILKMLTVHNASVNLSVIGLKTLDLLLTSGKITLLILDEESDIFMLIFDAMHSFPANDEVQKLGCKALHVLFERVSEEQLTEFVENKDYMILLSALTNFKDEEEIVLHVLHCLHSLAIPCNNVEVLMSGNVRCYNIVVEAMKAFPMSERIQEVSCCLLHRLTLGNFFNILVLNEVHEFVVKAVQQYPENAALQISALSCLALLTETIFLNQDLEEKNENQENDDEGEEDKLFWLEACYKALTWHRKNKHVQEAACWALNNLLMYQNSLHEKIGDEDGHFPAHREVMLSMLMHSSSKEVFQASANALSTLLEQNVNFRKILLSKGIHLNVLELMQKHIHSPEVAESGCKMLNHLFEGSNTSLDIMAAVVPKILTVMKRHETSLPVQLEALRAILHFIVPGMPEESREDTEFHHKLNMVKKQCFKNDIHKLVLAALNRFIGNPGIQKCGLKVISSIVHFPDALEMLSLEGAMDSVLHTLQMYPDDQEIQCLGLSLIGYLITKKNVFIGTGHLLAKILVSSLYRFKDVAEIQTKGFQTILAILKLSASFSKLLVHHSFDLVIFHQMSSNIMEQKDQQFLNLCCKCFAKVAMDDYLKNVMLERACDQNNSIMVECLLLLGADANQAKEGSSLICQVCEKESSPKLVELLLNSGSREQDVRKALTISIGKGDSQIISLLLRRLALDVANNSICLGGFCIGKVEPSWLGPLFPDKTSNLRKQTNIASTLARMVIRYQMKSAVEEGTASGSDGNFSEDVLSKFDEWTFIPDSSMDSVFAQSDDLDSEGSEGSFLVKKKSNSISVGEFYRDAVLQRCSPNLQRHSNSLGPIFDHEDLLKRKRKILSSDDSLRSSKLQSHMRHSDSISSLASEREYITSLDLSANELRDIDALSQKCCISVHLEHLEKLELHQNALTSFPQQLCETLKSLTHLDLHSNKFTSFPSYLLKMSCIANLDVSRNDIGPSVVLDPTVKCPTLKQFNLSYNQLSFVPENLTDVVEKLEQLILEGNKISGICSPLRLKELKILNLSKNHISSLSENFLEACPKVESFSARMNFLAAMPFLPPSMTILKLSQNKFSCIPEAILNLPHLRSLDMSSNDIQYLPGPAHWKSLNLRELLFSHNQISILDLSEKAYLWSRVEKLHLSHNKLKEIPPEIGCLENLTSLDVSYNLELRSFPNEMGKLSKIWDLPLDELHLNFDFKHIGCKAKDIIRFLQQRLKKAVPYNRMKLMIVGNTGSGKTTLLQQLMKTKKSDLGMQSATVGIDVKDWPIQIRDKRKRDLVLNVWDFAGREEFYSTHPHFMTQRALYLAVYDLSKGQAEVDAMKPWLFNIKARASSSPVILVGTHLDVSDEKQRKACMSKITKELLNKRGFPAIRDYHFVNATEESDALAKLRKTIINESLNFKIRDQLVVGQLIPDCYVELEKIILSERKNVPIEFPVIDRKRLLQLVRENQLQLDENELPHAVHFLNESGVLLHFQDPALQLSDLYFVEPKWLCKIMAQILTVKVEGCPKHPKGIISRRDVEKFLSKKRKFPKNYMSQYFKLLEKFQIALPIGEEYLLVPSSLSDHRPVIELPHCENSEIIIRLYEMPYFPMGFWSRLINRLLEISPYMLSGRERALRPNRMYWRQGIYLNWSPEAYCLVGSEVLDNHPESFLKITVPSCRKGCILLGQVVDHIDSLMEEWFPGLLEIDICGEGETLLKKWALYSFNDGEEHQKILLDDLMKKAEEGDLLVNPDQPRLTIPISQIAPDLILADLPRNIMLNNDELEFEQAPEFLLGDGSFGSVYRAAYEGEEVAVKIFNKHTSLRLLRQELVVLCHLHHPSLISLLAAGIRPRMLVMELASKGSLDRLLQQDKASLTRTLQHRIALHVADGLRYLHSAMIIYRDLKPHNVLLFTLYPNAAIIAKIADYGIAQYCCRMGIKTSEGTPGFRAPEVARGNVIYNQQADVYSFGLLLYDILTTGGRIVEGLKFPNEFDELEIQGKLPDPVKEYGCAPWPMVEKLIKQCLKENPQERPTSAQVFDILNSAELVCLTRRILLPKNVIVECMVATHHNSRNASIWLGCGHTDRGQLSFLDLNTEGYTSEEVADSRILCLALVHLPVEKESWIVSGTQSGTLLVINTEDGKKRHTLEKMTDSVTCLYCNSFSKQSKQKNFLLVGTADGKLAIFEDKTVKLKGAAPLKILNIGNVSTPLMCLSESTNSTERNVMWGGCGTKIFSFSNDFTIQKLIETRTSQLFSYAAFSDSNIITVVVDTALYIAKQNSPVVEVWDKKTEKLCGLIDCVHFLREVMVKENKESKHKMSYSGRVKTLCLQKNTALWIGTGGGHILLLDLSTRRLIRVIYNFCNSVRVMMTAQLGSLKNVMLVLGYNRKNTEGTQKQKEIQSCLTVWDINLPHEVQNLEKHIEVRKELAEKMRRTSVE

Compound	LRRK2 activity (%) (LRRK2)	Selectivity (DCLK1 activity/LRRK2 activity) (DCLK1)	DCLK1 activity (%) (DCLK1; [1])	melting point	activity at 1 µM (LRRK2)	activity at 1 µM (DCLK1; [1])	IC50 (LRRK2)	IC50 (DCLK1)	activity at 1 µM (DCLK1)	IC50 (HCT116)
CCOc1cc(N2CCC(O)CC2)ccc1Nc1ncc2c(n1)N(C)c1c(Cl)cccc1C(=O)N2C [Compound A1, 10-Chloro-2-((2-ethoxy-4-(4-hydroxypiperidin-1-yl)phenyl)amino)-5,11-dimethyl-5,11-dihydro-6H-benzo[e]pyrimido[5,4-b][1,4]diazepin-6-one]	–	3.13	–	130 to 131 °C	8%	25%	–	–	–	–
CCOc1cc(N2CCC(O)CC2)ccc1Nc1ncc2c(n1)N(C)c1c(C)cccc1C(=O)N2C [Compound A2, 2-((2-Ethoxy-4-(4-hydroxypiperidin-1-yl)phenyl)amino)-5,10,11-trimethyl-5,11-dihydro-6H-benzo[e]pyrimido[5,4-b][1,4]diazepin-6-one]	–	1.03	–	177 to 178 °C	100%	103%	–	–	–	–
CCOc1cc(N2CCC(O)CC2)ccc1Nc1ncc2c(n1)N(C)c1cc(Cl)ccc1C(=O)N2C [Compound A3, 9-Chloro-2-((2-ethoxy-4-(4-hydroxypiperidin-1-yl)phenyl)amino)-5,11-dimethyl-5,11-dihydro-6H-benzo[e]pyrimido[5,4-b][1,4]diazepin-6-one]	–	0.97	–	162 to 163 °C	88%	85%	–	–	–	–
CCOc1cc(N2CCC(O)CC2)ccc1Nc1ncc2c(n1)N(C)c1cc(C)ccc1C(=O)N2C [Compound A4, 2-((2-Ethoxy-4-(4-hydroxypiperidin-1-yl)phenyl)amino)-5,9,11-trimethyl-5,11-dihydro-6H-benzo[e]pyrimido[5,4-b][1,4]diazepin-6-one]	–	1.07	–	171 to 172 °C	83%	89%	–	–	–	–
CCOc1cc(N2CCC(O)CC2)ccc1Nc1ncc2c(n1)N(C)c1ccc(Cl)cc1C(=O)N2C [Compound A5, 8-Chloro-2-((2-ethoxy-4-(4-hydroxypiperidin-1-yl)phenyl)amino)-5,11-dimethyl-5,11-dihydro-6H-benzo[e]pyrimido[5,4-b][1,4]diazepin-6-one]	–	0.98	–	173 to 174 °C	89%	87%	–	–	–	–
CCOc1cc(N2CCC(O)CC2)ccc1Nc1ncc2c(n1)N(C)c1ccc(C(F)(F)F)cc1C(=O)N2C [Compound A7, 2-((2-Ethoxy-4-(4-hydroxypiperidin-1-yl)phenyl)amino)-5,11-dimethyl-8-(trifluoromethyl)-5,11-dihydro-6H-benzo[e]pyrimido[5,4-b][1,4]diazepin-6-one]	–	1.00	–	119 to 120 °C	109%	109%	–	–	–	–
CCOc1cc(N2CCC(O)CC2)ccc1Nc1ncc2c(n1)N(C)c1ccc(C)cc1C(=O)N2C [Compound A8, 2-((2-Ethoxy-4-(4-hydroxypiperidin-1-yl)phenyl)amino)-5,8,11-trimethyl-5,11-dihydro-6H-benzo[e]pyrimido[5,4-b][1,4]diazepin-6-one]	–	1.10	–	170 to 171 °C	93%	102%	–	–	–	–
CCOc1cc(N2CCC(O)CC2)ccc1Nc1ncc2c(n1)N(C)c1cccc(C)c1C(=O)N2C [Compound A10, 2-((2-Ethoxy-4-(4-hydroxypiperidin-1-yl)phenyl)amino)-5,7,11-trimethyl-5,11-dihydro-6H-benzo[e]pyrimido[5,4-b][1,4]diazepin-6-one]	–	0.98	–	184 to 185 °C	98%	96%	–	–	–	–
CCOc1cc(N2CCC(O)CC2)ccc1Nc1ncc2c(n1)N(C)c1ccccc1C(=O)N2C [XMD8-92, reference compound]	–	–	–	–	18%	–	219 nM	161 nM	14%	16200 nM

Continued, in another order:

LRRK2 activity (%) (LRRK2)	Selectivity (DCLK1 activity/LRRK2 activity) (DCLK1)	DCLK1 activity (%) (DCLK1; [1])	melting point	activity at 1 µM (LRRK2)	activity at 1 µM (DCLK1; [1])	Compound	IC50 (LRRK2)	IC50 (DCLK1)	activity at 1 µM (DCLK1)	IC50 (HCT116)
72%	0.82	59%	–	–	–	2-((2-Ethoxy-4-(4-hydroxypiperidin-1-yl)phenyl)amino)-5-methyl-5,11-dihydro-6H-benzo[e]pyrimido[5,4-b][1,4]diazepin-6-one [Compound B2]	–	–	–	–
76%	1.34	102%	–	–	–	2-((2-Ethoxy-4-(4-hydroxypiperidin-1-yl)phenyl)amino)-11-methyl-5,11-dihydro-6H-benzo[e]pyrimido[5,4-b][1,4]diazepin-6-one [Compound B1]	–	–	–	–
–	0.57	–	203 to 204 °C	99%	56%	CN1C(=O)c2ccccc2N(C)c2nc(NC3CCC(N4CCC(O)CC4)CC3)ncc21 (stereo not shown) [Compound C1, 2-((4-(4-Hydroxypiperidin-1-yl)cyclohexyl)amino)-5,11-dimethyl-5,11-dihydro-6H-benzo[e]pyrimido[5,4-b][1,4]diazepin-6-one]	–	–	–	–
–	2.14	–	189 to 190 °C	7%	15%	CN1C(=O)c2ccccc2N(C)c2nc(Nc3ccc(N4CCC(O)CC4)nc3)ncc21 [Compound C2, 2-((6-(4-Hydroxypiperidin-1-yl)pyridin-3-yl)amino)-5,11-dimethyl-5,11-dihydro-6H-benzo[e]pyrimido[5,4-b][1,4]diazepin-6-one]	–	–	–	–
–	0.51	–	178 to 179 °C	51%	26%	CCOc1cc(N2CCC(C)(O)CC2)ccc1Nc1ncc2c(n1)N(C)c1ccccc1C(=O)N2CC [Compound D9, 2-((2-Ethoxy-4-(4-hydroxy-4-methylpiperidin-1-yl)phenyl)amino)-5-ethyl-11-methyl-5,11-dihydro-6H-benzo[e]pyrimido[5,4-b][1,4]diazepin-6-one]	–	–	–	–
–	0.63	–	189 to 190 °C	81%	51%	CCOc1cc(N2CCC(C)(F)CC2)ccc1Nc1ncc2c(n1)N(C)c1ccccc1C(=O)N2CC [Compound D10, 2-((2-Ethoxy-4-(4-fluoro-4-methylpiperidin-1-yl)phenyl)amino)-5-ethyl-11-methyl-5,11-dihydro-6H-benzo[e]pyrimido[5,4-b][1,4]diazepin-6-one]	–	–	–	–
–	0.82	–	160 to 161 °C	72%	59%	COc1cc(N2CCC(F)CC2)ccc1Nc1ncc2c(n1)N(C)c1ccccc1C(=O)N2C [Compound D13, 2-((4-(4-Fluoropiperidin-1-yl)-2-methoxyphenyl)amino)-5,11-dimethyl-5,11-dihydro-6H-benzo[e]pyrimido[5,4-b][1,4]diazepin-6-one]	–	–	–	–
–	0.45	–	181 to 182 °C	33%	15%	COc1cc(N2CCC(C)(C)CC2)ccc1Nc1ncc2c(n1)N(C)c1ccccc1C(=O)N2C [Compound D16, 2-((4-(4,4-Dimethylpiperidin-1-yl)-2-methoxyphenyl)amino)-5,11-dimethyl-5,11-dihydro-6H-benzo[e]pyrimido[5,4-b][1,4]diazepin-6-one]	–	–	–	–
